Data on three compounds can be found in US20250282723A1, “AMYLOID TARGETING AGENTS AND METHODS OF USING THE SAME” (The Regents of the University of California, priority 2021, published 2025).

Each structure is given as a SMILES string.

The nature of the data set: Quantum yield measurements. Format: physicochemical. The following applies: 5% DMSO/H2O, reference standard Coumarin 30; for Quantum Yield (Φ): probes of FIG. 14. On the procedure: Quantum Yield Measurements. To determine the quantum yield (QY) of compounds ARCAM, 1-5, a procedure that was similar to a previously reported protocol for estimating the QY for Thioflavin T^24 was used. Briefly, the absorbance spectrum of each probe (in 5% Dimethyl Sulfoxide (DMSO)/water (H2O)), in addition to the absorbance spectrum for the reference standard (Coumarin 30, QY=0.67)^27 was measured. The wavelength at which the two normalized absorbance curves intersected was used as the excitation wavelength. A serial dilution of each probe and the standard was made with absorbance values at the excitation wavelength in the range of 0 to 0.1 absorbance units. At each concentration, the emission spectra for each probe and the standard were measured. Technical triplicates of these experiments were performed for all probes, and the averages were recorded. From these emission spectra, the area under the curve was calculated and plotted against the absorbance at each concentration (FIGS. 3-7). The data were fitted to Equation 1 to obtain estimates for QY: […]
where QY represents the quantum yield, A represents the absorbance, E represents the integrated fluorescence emission, η represents the refractive index of the solvent^28,29, and the ‘p’ and ‘r’ subscripts signify the probe or the reference compound, respectively.
Quantum Yield ((D) for each probe was measured as described previously.^31 Briefly, we measured the absorbance spectrum of each probe in 5% DMSO/H2O, as well as the absorbance spectrum for the reference standard (Coumarin 30, =0.67 in Acetonitrile). Both normalized absorbance curves were plotted, and the wavelength of intersection was used as the excitation wavelength. A serial dilution was made for each probe and the standard with absorbance values at the excitation wavelength varying between of 0 to 0.1 absorbance units. At each concentration, the emission spectra for each probe and the standard were measured. Each experiment was repeated in technical triplicates for all probes, and the averages were recorded. The integrated fluorescence emission was calculated and plotted against the absorbance at each concentration. The data were fitted to Equation Si to obtain estimates for Φ: […]
where Φ represents the quantum yield, A represents the absorbance, E represents the integrated fluorescence emission, η represents the refractive index of the solvent, and the ‘p’ and ‘r’ subscripts signify the probe or the reference compound, respectively.

For `COCCOCCOCCNC(=O)C(C#N)=Cc1ccc2cc(N3CCCCC3)ccc2c1` (mixture of isomers) [Compound 1], the QY worked out at 0.0066 ± 0.0023 and the “Quantum Yield (Φ)” value is listed as 0.0066.
Taken in the same sequence, the figures for `COCCOCCOCCNC(=O)/C(C#N)=C/c1ccc2cc(N3CCCCC3C)ccc2c1` (racemic) [Compound 4, (E)-2-cyano-N-(2-(2-(2-methoxyethoxy)ethoxy)ethyl)-3-(6-(2-methylpiperidin-1-yl)naphthalen-2-yl)acrylamide] were 0.0062 ± 0.0003 and 0.0062.
Turning to `CCC1CCCCN1c1ccc2cc(/C=C(\C#N)C(=O)NCCOCCOCCOC)ccc2c1` (racemic) [Compound 5, (E)-2-cyano-3-(6-(2-ethylpiperidin-1-yl)naphthalen-2-yl)-N-(2-(2-(2-methoxyethoxy)ethoxy)ethyl)acrylamide], the QY worked out at 0.0055 ± 0.0010 and the “Quantum Yield (Φ)” value turned out to be 0.0055.
